In patent publication US20240252546A1, “NEURITE OUTGROWTH PROMOTION KIT AND USE THEREFOR” (KEIO UNIVERSITY, priority 2021, published 2024):

Key:
Type in all cases: cell-based, human
[1] = system: nerve cells induced from neurospheres derived from 201B7 cells; assay: Neurite outgrowth of nerve cells differentiated from γ-secretase inhibitor-treated neurospheres (Experimental Example 1); conditions: for neurite outgrowth, Tau protein immunostaining / neurite outgrowth (length of the neurite), βIII-tubulin immunostaining: 201B7 neurospheres cultured 24 hours with inhibitor (10 μM DAPT, 1 μM Compound 34), differentiated 14 days; for neurite outgrowth (length of the neurite), βIII-tubulin immunostaining: vs control and other γ-secretase inhibitors
Text: Various γ-secretase inhibitors were allowed to act on neurospheres derived from human iPS cells. Subsequently, each neurosphere was induced to differentiate into nerve cells, and the neurite outgrowth was examined. The following inhibitors were used as γ-secretase inhibitors: DAPT (CAS Number: 208255-80-5), Compound 34 (CAS Number: 564462-36-8), L-685,458 (CAS Number: 292632-98-5), LY411575 (CAS number: 209984-57-6), Sulindac (CAS number: 38194-50-2, which is also an anti-inflammatory drug), and Compound E (CAS number: 209986-17-4).
First, 201B7 cells, which are cells of a human iPS cell line, were differentiated into neurospheres. 3 μM SB431542 (Tocris Bioscience, catalog number: “301836-41-9”) and 150 nM LDN193189 (StemRD Inc., catalog number: “1062368-24-4”) were added to a culture medium of 201B7 cells, and the cells were treated for 6 days.
Subsequently, the cells were dissociated and seeded in a cell culture dish (product name: “ultralow-attachment culture dish”, Corning Incorporated) at a cell density of 1× 10^5 cells/mL in a nerve induction medium, and then cultured for 6 days in a hypoxic and moist environment (4% O2 and 5% CO2) to carry out differentiation into neurospheres.
The culture medium used as the nerve induction medium was a culture medium obtained by adding a 2% B27 supplement (without vitamin A, Thermo Fisher Scientific, Inc., catalog number: “17504-044”), 20 ng/ml of FGF2 (PeproTech, Inc.), 10 μM Y27632 (Sigma-Aldrich Co., LLC, catalog number: “146986-50-7”), 1 μM retinoic acid (RA, Sigma-Aldrich Co., LLC, catalog number: “R2625-1G”), 3 μM CHIR 99021 (ReproCELL Inc., catalog number: “04-0004”), and 10 μM SB431542 (Calbiochem, catalog number: “301836-41-9”), to an MHM medium of which the composition is shown in Table 1 below.
Subsequently, the formed neurospheres were dissociated into single cells, the single cells were passaged in a modified nerve induction medium and cultured for 6 days in a hypoxic environment (4% O2). The culture medium used as the modified nerve induction medium was a culture medium obtained by adding a 2% B27 supplement (without vitamin A, catalog number: “17504-044”, Thermo Fisher Scientific, Inc.), 20 ng/ml of FGF2 (PeproTech, Inc.), 10 μM Y27632 (catalog number: “146986-50-7”, Sigma-Aldrich Co., LLC), and 1 μM retinoic acid (RA, catalog number: “R2625-1G”, Sigma-Aldrich Co., LLC), to an MHM medium of which the composition is shown in Table 1 above.
Subsequently, neurospheres were cultured for 24 hours in the presence of each γ-secretase inhibitor. Each inhibitor was added to a culture medium of the neurosphere so that the final concentration was 10 μM for DAPT, 1 μM for Compound 34, 10 μM for L-685,458, 10 μM for LY411575, 10 μM for Sulindac, and 5 μM for Compound E. In addition, a control group cultured in the absence of a γ-secretase inhibitor was also prepared.
Subsequently, each neurosphere was seeded on a 48-well chamber slide (IWAKI & CO., LTD.) coated with poly-L-ornithine/fibronectin, cultured for 14 days in a culture medium containing no growth factor at 37° C. in an environment of 95% air and 5% CO2, and differentiated into nerve cells.
Subsequently, each of the obtained nerve cells was fixed with 4% paraformaldehyde in 0.1 M PBS, and each of βIII-tubulin, which is a nerve cell marker, and the Tau protein, which is frequently distributed in axons, was immunostained, and the length of the neurite was measured.
FIG. 2 is a graph in which the results of FIGS. 1(a) to 1(g) are quantified. […]

[2] = system: phosphorylated p38; assay: Immunostaining of phosphorylated p38 in treated neurospheres (Experimental Example 3); conditions: 201B7 neurospheres; 10 μM DAPT, 1 μM Compound 34, 24 hours; vs control
Experimental: (§1) Neurospheres derived from 201B7 cells were treated with various γ-secretase inhibitors in the same manner as in Experimental Example 1. As the γ-secretase inhibitor, DAPT, Compound 34, L-685,458, LY411575, Sulindac, and Compound E were used at the same concentrations as in Experimental Example 1. Subsequently, each neurosphere was fixed with paraformaldehyde and subjected to immunostaining of phosphorylated p38.
FIG. 5 is a graph showing the results obtained by quantifying the amount of the phosphorylated p38 in the neurosphere which had been treated with each of the γ-secretase inhibitors. In FIG. 5, “Ctl” indicates the result obtained from the control, “DAPT” indicates the result obtained by the DAPT treatment, “C. 34” indicates the result obtained by Compound 34 treatment, “L-685” indicates the result obtained by the L-685,458 treatment, “LY” indicates the result obtained by the LY411575 treatment, “Suli” indicates the result obtained by the Sulindac treatment, and “Com. E” indicates the result obtained by the Compound E treatment.

[3] = system: phosphorylated CDC25B; assay: Immunostaining of phosphorylated CDC25B in treated neurospheres (Experimental Example 4); conditions: 201B7 neurospheres; 10 μM DAPT, 1 μM Compound 34, 24 hours; vs control
Experimental: as §1, with “CDC25B.” for “p38.”
FIG. 8 is a graph showing the results obtained by quantifying the amount of the phosphorylated CDC25B in the neurosphere which had been treated with each of the γ-secretase inhibitors.

[4] = system: CDC25B; assay: Expression level of CDC25B by RNA-seq (Experimental Example 4); conditions: 201B7 neurospheres, vs control
Text: FIG. 9 is a graph showing the results obtained by treating the neurosphere derived from 201B7 cells with each of DAPT and Compound 34, carrying out the RNA-seq analysis, and quantifying the expression level of CDC25B based on transcriptome data.

SMILES	neurite outgrowth, Tau protein immunostaining [1]	neurite outgrowth (length of the neurite), βIII-tubulin immunostaining [1]	concentration at which the neurite outgrowth-promoting effect is obtained ([1]; compared with DAPT)	amount of phosphorylated p38 in the neurosphere [2]	amount of phosphorylated CDC25B in the neurosphere [3]	expression level of CDC25B [4]
O=C1Nc2ccccc2C(c2ccccc2)=N[C@@H]1NC(=O)[C@H](c1ccc(F)cc1)[C@@H](CO)c1ccc(F)c(F)c1 [Compound 34]	particularly promoted	particularly promoted	low concentration as compared with DAPT	significantly increased	significantly increased	slightly increased
C[C@H](NC(=O)Cc1cc(F)cc(F)c1)C(=O)N[C@H](C(=O)OC(C)(C)C)c1ccccc1 [DAPT]	particularly promoted	particularly promoted	–	significantly increased	significantly increased	slightly increased
